# Test results: ChEMBL document CHEMBL2331130, “Synthesis and antibacterial activity of 9-oxime ether non-ketolides, and novel binding mode of alkylides with bacterial rRNA” (2013)
# Tests used:
# Format in all cases: functional
# Staphylococcus aureus [1] = assay: Antibacterial activity against erythromycin-susceptible Staphylococcus aureus ATCC 29213 by broth microdilution method
# Staphylococcus aureus [2] = assay: Antibacterial activity against methicillin-resistant, MLS-resistant (constitutive) Staphylococcus aureus PU 20 by broth microdilution method
# [3] = tested on: Staphylococcus epidermidis; assay: Antibacterial activity against methicillin-resistant, MLS-resistant (constitutive) Staphylococcus epidermidis E2 by broth microdilution method
# Streptococcus pneumoniae [4] = assay: Antibacterial activity against MLS-resistant (constitutive), penicillin-resistant Streptococcus pneumoniae PU11 by broth microdilution method
# Streptococcus pyogenes [5] = assay: Antibacterial activity against MLS-resistant (constitutive) Streptococcus pyogenes A2 by broth microdilution method
# [6] = tested on: Staphylococcus epidermidis; assay: Antibacterial activity against methicillin-susceptible, MLS-resistant (inducible) Staphylococcus epidermidis E1 by broth microdilution method
# Staphylococcus aureus [7] = assay: Antibacterial activity against methicillin-resistant, MLS-resistant (inducible) Staphylococcus aureus PU 32 by broth microdilution method
# [8] = tested on: Staphylococcus epidermidis; assay: Antibacterial activity against methicillin-resistant, coagulase-negative, MLS-resistant (inducible) Staphylococcus epidermidis E3 by broth microdilution method
# Staphylococcus aureus [9] = assay: Antibacterial activity against methicillin-resistant, […], MLS-resistant (constitutive) Staphylococcus aureus PU 19 by broth microdilution method
# Streptococcus pneumoniae [10] = assay: Antibacterial activity against MLS-resistant (constitutive), penicillin-susceptible Streptococcus pneumoniae PU27 by broth microdilution method
# Streptococcus pyogenes [11] = assay: Antibacterial activity against erythromycin-susceptible Streptococcus pyogenes A3 by broth microdilution method
# [12] = tested on: Streptococcus dysgalactiae; assay: Antibacterial activity against erythromycin-resistant Streptococcus dysgalactiae A1 by broth microdilution method
# Streptococcus pneumoniae [13] = assay: Antibacterial activity against penicillin-susceptible Streptococcus pneumoniae PU09 harboring mef gene by broth microdilution method
# Streptococcus pneumoniae [14] = assay: Antibacterial activity against erythromycin-susceptible Streptococcus pneumoniae ATCC 49619 by broth microdilution method
# Staphylococcus aureus [15] = assay: Antibacterial activity against methicillin-susceptible, MLS-resistant (inducible) Staphylococcus aureus PU 64 by broth microdilution method
Compound,MIC (Staphylococcus aureus [1]) [µg/mL],MIC (Staphylococcus aureus [2]) [µg/mL],MIC [3] [µg/mL],MIC (Streptococcus pneumoniae [4]) [µg/mL],MIC (Streptococcus pyogenes [5]) [µg/mL],MIC [6] [µg/mL],MIC (Staphylococcus aureus [7]) [µg/mL],MIC [8] [µg/mL],MIC (Staphylococcus aureus [9]) [µg/mL],MIC (Streptococcus pneumoniae [10]) [µg/mL],MIC (Streptococcus pyogenes [11]) [µg/mL],MIC [12] [µg/mL],MIC (Streptococcus pneumoniae [13]) [µg/mL],MIC (Streptococcus pneumoniae [14]) [µg/mL],MIC (Staphylococcus aureus [15]) [µg/mL]
CC[C@H]1OC(=O)[C@H](C)[C@@H](OC(=O)Cc2cccnc2)[C@H](C)[C@@H](O[C@@H]2O[C@H](C)C[C@H](N(C)C)[C@H]2O)[C@](C)(OC)C[C@@H](C)/C(=N\OC/C=C/c2cnc3ccccc3c2)[C@H](C)[C@H]2OC(=O)O[C@@]21C,64,> 256,> 256,128,128,> 256,64,> 256,> 256,64,1,16,8,2,32
CC[C@H]1OC(=O)[C@H](C)[C@@H](OC(=O)Cc2ccccn2)[C@H](C)[C@@H](O[C@@H]2O[C@H](C)C[C@H](N(C)C)[C@H]2O)[C@](C)(OC)C[C@@H](C)/C(=N\OC/C=C/c2cnc3ccccc3c2)[C@H](C)[C@H]2OC(=O)O[C@@]21C,32,> 256,> 256,64,32,32,64,32,> 256,32,0.5,8,16,1,32
CC[C@H]1OC(=O)[C@H](C)[C@@H](OC(=O)Cc2cccnc2)[C@H](C)[C@@H](O[C@@H]2O[C@H](C)C[C@H](N(C)C)[C@H]2O)[C@](C)(OC)C[C@@H](C)/C(=N\OCC#Cc2cncc3ccccc23)[C@H](C)[C@H]2OC(=O)O[C@@]21C,32,> 256,> 256,64,64,> 256,64,> 256,> 256,64,1,8,8,1,32
CC[C@H]1OC(=O)[C@H](C)[C@@H](OC(=O)Cc2ccccn2)[C@H](C)[C@@H](O[C@@H]2O[C@H](C)C[C@H](N(C)C)[C@H]2O)[C@](C)(OC)C[C@@H](C)/C(=N\OCC#Cc2cncc3ccccc23)[C@H](C)[C@H]2OC(=O)O[C@@]21C,32,> 256,> 256,32,32,> 256,32,> 256,> 256,32,8,8,8,1,16
CC[C@H]1OC(=O)[C@H](C)[C@@H](O[C@H]2C[C@@](C)(OC)[C@@H](O)[C@H](C)O2)[C@H](C)[C@@H](O[C@@H]2O[C@H](C)C[C@H](N(C)C)[C@H]2O)[C@](C)(O)C[C@@H](C)CN(C)[C@H](C)[C@@H](O)[C@]1(C)O [AZITHROMYCIN],2,–,> 256,> 256,> 256,> 256,> 256,> 256,> 256,–,≤ 0.008,64,64,0.25,–
CC[C@H]1OC(=O)[C@H](C)[C@@H](O[C@H]2C[C@@](C)(OC)[C@@H](O)[C@H](C)O2)[C@H](C)[C@@H](O[C@@H]2O[C@H](C)C[C@H](N(C)C)[C@H]2O)[C@](C)(OC)C[C@@H](C)C(=O)[C@H](C)[C@@H](O)[C@]1(C)O [CLARITHROMYCIN],0.5,> 256,> 256,> 256,> 256,> 256,> 256,> 256,> 256,> 256,≤ 0.008,16,> 256,0.032,> 256
CC[C@H]1OC(=O)[C@H](C)C(=O)[C@H](C)[C@@H](O[C@@H]2O[C@H](C)C[C@H](N(C)C)[C@H]2O)[C@](C)(OC)C[C@@H](C)C(=O)[C@H](C)[C@H]2N(CCCCn3cnc(-c4cccnc4)c3)C(=O)O[C@]12C [TELITHROMYCIN],0.25,> 256,> 256,4,128,1,1,8,> 256,0.125,≤ 0.008,2,0.125,≤ 0.008,0.5
